Laboratory results from patent US20230084515A1, “THERAPEUTIC METHODS AND COMPOSITIONS FOR TREATING CANCER USING BRAF AND/OR MEK INHIBITOR COMBINATION THERAPY” (Vanderbilt University, priority 2020, published 2023).

Assays:
SC10 = test: Proliferation assay (population growth curves, DIP rates) in SKMEL5 subline SC10; assay type: cell-based, human; settings: for effect of combination with BRAFi on proliferation (DIP rates): combination with PLX4720 8 μM
Experimental: The cells are labeled lentivirally with a fluorescent, nuclear tag (Histone 2B monomeric Red Fluorescent Protein, H2BmRFP from AddGene), flow sorted for H2BmRFP positivity (top 10-15% brightest), and fluorescently counted under drug treatments. Cells are seeded into 96 well plates (1-5,000 cells per well) and drug treatments applied the following day, including DMSO or PBS control (all concentrations contained equal percentage of DMSO or PBS solvent). Images are taken every 8-12 hours with sufficient image alignment (montaging) in order to capture about 25-100 cells per well/treatment (over the course of the experiment, cell counts typically exceed 1,000 in DMSO or low drug concentration wells). Direct measurements of cell counts are made using Cellavista software and Image J macros. The images are filtered through these computer programs to track and label each cell, quantifying the number of cells in each time-stamped frame. Proliferation is platted as log2 normalized growth, using the initial cell count from the first image frame for normalization. Dose-response curves are generated using a 2-fold dilution of single drugs at various concentrations ranked highest to zero (zero containing only the solvent the drug was dissolved in, being either DMSO or H2O); all concentrations contained equal volumes of the solvent used. For combinations with PLX4720 (BRAF inhibitor), 8 μM PLX4720 was used as diluent, and serially diluted with the second drug from highest concentration to lowest. The drug-induced proliferation (DIP) rates (see, Harris, L. A., et al. “An unbiased metric of antiproliferative drug effect in vitro,” Nature Methods', 2016, vol. 13, p. 497-500.) are calculated using the slope of the log2-normalized population curves after 24 hrs. BRAF-mutated melanoma cells (SKMEL5, A375, WM793, SKMEL19, SKMEL28, WM164, WM88, A2058) were grown and cultured in Dulbecco's modified Eagle's medium and Ham's F-12 medium (DMEM:F12, 1:1. Cat #11330-032). Media were obtained from Gibco (Grand Island, N.Y.) and supplemented with 10% FBS, All cells were cultured in CO2, temperature-controlled (37° C.), and humidified incubators. Cells were tested for mycoplasma before use and confirmed negative. Cells were passaged 1-2× per week and maintained as exponentially growing cultures for a maximum of less than 2.0 passages. Unless otherwise indicated, cells were seeded 16-24 h prior to treatment to allow cells to adhere to culture plates. Reagents/drugs were prepared in complete medium immediately prior to adding to cells by replacement. PLX4720 (Cat #S1152) and vemurafenib (Cat #S1267) were obtained from Selleckchem (Houston, Tex.) solubilized in dimethyl sulfoxide (DMSO) at a stock concentration of 10 mM. […]

A2058 cells = test: Proliferation assay (population growth curves, DIP rates) in A2058 cells; assay type: cell-based, human
Experimental: The cells are labeled lentivirally with a fluorescent, nuclear tag (Histone 2B monomeric Red Fluorescent Protein, H2BmRFP from AddGene), flow sorted for H2BmRFP positivity (top 10-15% brightest), and fluorescently counted under drug treatments. Cells are seeded into 96 well plates (1-5,000 cells per well) and drug treatments applied the following day, including DMSO or PBS control (all concentrations contained equal percentage of DMSO or PBS solvent). Images are taken every 8-12 hours with sufficient image alignment (montaging) in order to capture about 25-100 cells per well/treatment (over the course of the experiment, cell counts typically exceed 1,000 in DMSO or low drug concentration wells). Direct measurements of cell counts are made using Cellavista software and Image J macros. The images are filtered through these computer programs to track and label each cell, quantifying the number of cells in each time-stamped frame. Proliferation is platted as log2 normalized growth, using the initial cell count from the first image frame for normalization. […] The drug-induced proliferation (DIP) rates (see, Harris, L. A., et al. “An unbiased metric of antiproliferative drug effect in vitro,” Nature Methods', 2016, vol. 13, p. 497-500.) are calculated using the slope of the log2-normalized population curves after 24 hrs. […]

SMILES	effect of combination with BRAFi on proliferation (DIP rates) (SC10)	DIP rates under BRAF-inhibition (SC10)	DIP rates under BRAF-inhibition (A2058 cells)	effect of combination with BRAFi on proliferation (DIP rates) (A2058 cells; DPI 250 nM, BRAFi 8 μM, FIG. 6A)
COc1cc(C(C)=O)ccc1O [Apocynin]	synergism			
CN(C)c1cccc(-c2c3c(=O)n(-c4ccccc4Cl)[nH]c3cc(=O)n2C)c1 [GKT137831]	synergism			
CCCS(=O)(=O)Nc1ccc(F)c(C(=O)c2c[nH]c3ncc(Cl)cc23)c1F [PLX4720]		positive DIP rates	positive DIP rates	
c1ccc2c(c1)[I+]c1ccccc1-2 [DPI, Diphenyleneiodonium chloride]	synergism			enhancement of NOX-inhibition on the anti-proliferative effects of BRAF-inhibition
